Laboratory results reported in paper PMC8881610 (Nature Communications, 2022).

Legend:
Test in all cases: cAMP accumulation assay, GCGR WT, mutant or modified constructs
Format in all cases: cell-based
Set-up in all cases: V5 (C); 6×His (C); expressed in transfected cells; host or cells: HEK293T
GCGR [1] = biological target: GCGR (Homo sapiens, UniProt P47871, D195A/Q142A/R199A); settings: HEK-293T, GCGR Q142A/D195A/R199A; HEK293T
Protocol: (§1) Human embryonic kidney 293 cells containing SV40 large T-antigen (HEK293T) were cultured in DMEM (Gibco) supplemented with 10% (v/v) fetal bovine serum (FBS, Gibco), 1 mM sodium pyruvate (Gibco) and 100 units/mL penicillin and 100 μg/mL streptomycin at 37 °C in 5% CO2. Chinese hamster ovary (CHO-K1) cells were cultured in F-12 (Gibco) containing 10% FBS, 100 units/mL penicillin and 100 μg/mL streptomycin at 37 °C in 5% CO2. For cAMP and receptor expression assays, HEK293T cells were seeded into 6-well cell culture plates at a density of 7 × 10^5 cells per well. After overnight incubation, cells were transfected with GIPR, GLP-1R or GCGR construct using Lipofectamine 2000 or Lipofectamine 3000 transfection reagent (Invitrogen). For whole-cell binding assay, CHO-K1 cells were seeded into 96-well fibronectin-treated cell culture plates at a density of 3 × 10^4 cells per well. After overnight incubation, cells were transfected with GIPR, GLP-1R or GCGR construct using Lipofectamine 2000 transfection reagent (Invitrogen). Following 24 h culturing, the transfected cells were ready for use. […]
(§2) For GIPR, GLP-1R and GCGR, multi-targeting agonist stimulated cAMP accumulation was measured by a LANCE Ultra cAMP kit (PerkinElmer). After 24 h culture, the transfected cells were seeded into 384-well microtiter plates at a density of 3,000 cells per well in HBSS supplemented with 5 mM HEPES, 0.1% (w/v) BSA or 0.1% (w/v) casein and 0.5 mM 3-isobutyl-1-methylxanthine. The cells were stimulated with different concentrations of peptide agonists for 40 min at RT. Eu-cAMP tracer and ULight^TM-anti-cAMP were then diluted by cAMP detection buffer and added to the plates separately to terminate the reaction. Plates were incubated at RT for 1 h and the fluorescence intensity measured at 620 nm and […] by an EnVision multilabel plate reader (PerkinElmer).

GCGR [2] = biological target: GCGR (Homo sapiens, UniProt P47871, K205A); settings: GCGR K205A, HEK293T
Protocol: as §1, §2

GCGR [3] = biological target: GCGR (Homo sapiens, UniProt P47871, Q131A); settings: GCGR Q131A, HEK293T
Protocol: as §1, §2

GCGR [4] = biological target: GCGR (Homo sapiens, UniProt P47871, W215A); settings: HEK-293T, GCGR W215A; HEK293T
Protocol: as §1, §2

GCGR [5] = biological target: GCGR (Homo sapiens, UniProt P47871, Y202A); settings: HEK-293T, GCGR Y202A; HEK293T
Protocol: as §1, §2

[6] = read-out: cAMP pEC50 (converted)

Chain of GCGR (Homo sapiens, UniProt P47871, K205A) (P47871 26-477 K205A): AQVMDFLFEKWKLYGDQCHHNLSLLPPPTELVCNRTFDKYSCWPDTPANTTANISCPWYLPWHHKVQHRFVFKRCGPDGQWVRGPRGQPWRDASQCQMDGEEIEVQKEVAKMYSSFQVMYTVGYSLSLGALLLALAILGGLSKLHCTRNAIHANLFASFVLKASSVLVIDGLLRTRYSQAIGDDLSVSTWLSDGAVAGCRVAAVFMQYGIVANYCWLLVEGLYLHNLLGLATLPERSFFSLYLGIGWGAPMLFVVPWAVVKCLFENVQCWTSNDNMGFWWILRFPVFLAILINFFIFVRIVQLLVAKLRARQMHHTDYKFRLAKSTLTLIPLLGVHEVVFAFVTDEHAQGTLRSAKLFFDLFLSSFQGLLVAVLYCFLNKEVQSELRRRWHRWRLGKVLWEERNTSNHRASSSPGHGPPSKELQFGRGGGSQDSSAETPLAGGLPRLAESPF
Chain of GCGR (Homo sapiens, UniProt P47871, Q131A) (P47871 26-477 Q131A): as the sequence (P47871 26-477 K205A) above, with Q106A, A180K counted along it
Chain of GCGR (Homo sapiens, UniProt P47871, D195A/Q142A/R199A) (P47871 26-477 Q142A/D195A/R199A): as the sequence (P47871 26-477 K205A) above, with Q117A, D170A, R174A, A180K counted along it
Chain of GCGR (Homo sapiens, UniProt P47871, Y202A) (P47871 26-477 Y202A): as the sequence (P47871 26-477 K205A) above, with Y177A, A180K counted along it
Chain of GCGR (Homo sapiens, UniProt P47871, W215A) (P47871 26-477 W215A): as the sequence (P47871 26-477 K205A) above, with A180K, W190A counted along it

## CCCCCCCCCCCCCCCC(=O)N[C@@H](CCC(=O)NCCCC[C@H](NC(=O)[C@H](CC(=O)O)NC(=O)[C@H](CO)NC(=O)[C@@H](NC(=O)[C@H](Cc1ccccc1)NC(=O)[C@@H](NC(=O)CNC(=O)[C@H](CCC(N)=O)NC(=O)C(C)(C)NC(=O)[C@@H](N)Cc1c[nH]cn1)[C@@H](C)O)[C@@H](C)O)C(=O)N[C@@H](CO)C(=O)N[C@@H](CCCCN)C(=O)N[C@@H](Cc1ccc(O)cc1)C(=O)N[C@@H](CC(C)C)C(=O)N[C@@H](CC(=O)O)C(=O)N[C@@H](CCC(=O)O)C(=O)N[C@@H](CCCNC(=N)N)C(=O)N[C@@H](C)C(=O)N[C@@H](C)C(=O)N[C@@H](CCC(N)=O)C(=O)N[C@@H](CC(=O)O)C(=O)N[C@@H](Cc1ccccc1)C(=O)N[C@H](C(=O)N[C@@H](CCC(N)=O)C(=O)N[C@@H](Cc1c[nH]c2ccccc12)C(=O)N[C@@H](CC(C)C)C(=O)N[C@@H](CC(C)C)C(=O)N[C@@H](CC(=O)O)C(=O)NCC(=O)NCC(=O)N1CCC[C@H]1C(=O)N[C@@H](CO)C(=O)N[C@@H](CO)C(=O)NCC(=O)N[C@@H](C)C(=O)N1CCC[C@H]1C(=O)N1CCC[C@H]1C(=O)N1CCC[C@H]1C(=O)N[C@@H](CO)C(N)=O)C(C)C)C(=O)O [Peptide 20]
GCGR [1]
  Emax: 100 ± 2.37%
GCGR [2]; [6]
  EC50: 13.2 pM
GCGR [2]; HEK-293T
  Emax: 101 ± 1.28%
GCGR [3]; [6]
  EC50: 28.2 pM
GCGR [3]; HEK-293T
  Emax: 101 ± 1.59%
GCGR [4]
  Emax: 99.6 ± 2.02%
GCGR [5]
  Emax: 103 ± 2.48%
